# In PubChem BioAssay AID179 (DTP/NCI, 2004):
# The source made the active and inactive calls.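 How the source made its calls: active means compounds giving half or more protection of infected cells from virus-caused growth loss, again on retest; inactive means the rest.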 Where a SMILES comes first, the peptide text is derived from it. The star is where a group is joined. Boc = CC(C)(C)OC(=O)*
# Tested on: CEM cells HIV-1 protection, formazan growth assay
# Assay: NCI AIDS Antiviral Assay
# Conditions: for IC50: measured here: growth of uninfected CEM cells
# Procedure, shortened: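 Soluble formazan readout of cell growth; CEM cells ± HIV-1; 5 drug concs. ≥50% protection → retest; ≥50% again = moderately active; reproducible 100% = confirmed active.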
SMILES,EC50,IC50,outcome
O=C(Nc1cccc(C(=O)Nc2ccc(C3=NCCN3)cc2)c1)c1ccc(C2=NCCN2)cc1,9.12 µM,155 µM,–
COC1/C=C/OC2(C)Oc3c(C)c(O)c4c(O)c(c(/C=N/n5cnc6c(ncn6C6OC(CO)C(O)C6O)c5=O)c(O)c4c3C2=O)NC(=O)/C(C)=C\C=C\C(C)C(O)C(C)C(O)C(C)C(OC(C)=O)C1C (configuration not stated),> 200 µM,66.1 µM,–
CCCS(=O)(=O)/C(=C(\c1ccc(Br)cc1)S(=O)(=O)CCC)c1ccc(Br)cc1,> 2.63 µM,> 2.63 µM,–
COc1cc(C2SCC(=O)N2NC(=O)c2ccc(NC(C)=O)cc2)cc(OC)c1OC (configuration not stated),> 58.9 µM,> 58.9 µM,–
O=C(CC(C(=O)c1ccsc1)c1ccsc1)c1ccsc1 (configuration not stated),> 200 µM,22.4 µM,–
CC(=O)NNc1nc(C)c(C(=O)NNC(=O)C(=O)Nc2ccc(Cl)cc2Cl)s1,–,–,inactive
CC(C)(N=NC(C)(C)C(=N)N)C(=N)N,> 200 µM,> 200 µM,–
O=S1(=O)c2ccccc2C(O)(c2ccccc2)c2ccccc21,> 200 µM,123 µM,–
O=S(=O)(C1=CC(S(=O)(=O)c2ccccc2)CN(Cc2ccccc2)C1c1cccc2ccccc12)c1ccccc1 (configuration not stated),–,–,inactive
C=CC[P@]1(=O)O[C@H](c2ccccc2)[C@H](C)N1C,–,–,inactive
O=C1/C(=C\c2cccc(Oc3ccccc3)c2)SC(c2ccccc2)N1c1ccccc1Cl (configuration not stated),> 20 µM,–,–
CC(C)CCCC(C)[C@H]1CC[C@H]2[C@@H]3CC[C@H]4C[C@@H](CCC=C(c5cc(Cl)c(O)c(C(=O)OCc6ccccc6)c5)c5cc(Cl)c(O)c(C(=O)OCc6ccccc6)c5)CC[C@]4(C)[C@H]3CC[C@]12C (some centres not stated),–,–,inactive
Nc1ncnc2c1ncn2C1C(=O)C(CO)C1CO (configuration not stated),> 234 µM,> 234 µM,–
O=C(O)CN(c1ccccc1Cl)S(=O)(=O)c1ccccc1,–,–,inactive
CN(C)CCNc1ccc(NCC[N+](C)(C)Cc2ccc([N+](=O)[O-])cc2)c2c1C(=O)c1c(O)ccc(O)c1C2=O,> 20 µM,0.891 µM,–
Cc1cc(Oc2cnc(=O)[nH]c2)cs1,> 200 µM,> 200 µM,–
C=C(C)[C@H]1C2=CC(C(=O)OC)=C(C[C@H](C(=C)C)[C@H]3O[C@H]3C3=C[C@H]1OC3=O)O2,> 200 µM,1.62 µM,–
COc1ccc(CC2=NCCc3cc(OC)c(OC)cc32)cc1Br,> 240 µM,3.47 µM,–
O=S(=O)(SS(=O)(=O)c1ccc(Cl)cc1)c1ccc(Cl)cc1,> 93.3 µM,> 93.3 µM,–
NC(N)=NCCCS(=O)(=O)Nc1ccc(Nc2c3ccccc3nc3cc([N+](=O)[O-])ccc23)cc1,–,–,inactive
COc1ccc(OC)c2cc(Cc3ccc(N(C)C)cc3)c(=O)c(Cc3ccc(N(C)C)cc3)cc12,> 200 µM,43.7 µM,–
c1ccc2c(c1)nnn2CNc1ccc(N2CCOCC2)cc1,> 200 µM,51.3 µM,–
N#CC(/C=C/c1ccccc1)Nc1ccccc1CO (configuration not stated),> 27.5 µM,> 27.5 µM,–
O=C1Cc2c(-c3ccccc3)cc(-c3ccc4ccccc4c3)nc2-c2ccccc2N1,> 200 µM,51.3 µM,–
NC(=O)SCC(=O)NNc1ccccc1,> 200 µM,4.47 µM,–
N#Cc1nn(C2OC(COC(=O)c3ccccc3)C(OC(=O)c3ccccc3)C2OC(=O)c2ccccc2)c2nc[nH]c(=O)c12 (configuration not stated),> 200 µM,74.1 µM,–
C=CC1(c2ccccc2Cl)N/C(=C/OCC)CO1 (configuration not stated),> 26.9 µM,> 26.9 µM,–

SMILES,EC50,IC50,outcome
CN(C)CCCNC(=O)c1cc(NC(=O)c2cc(NC(=O)c3cc(NC(=O)c4ccnc(C(=O)Nc5cc(C(=O)Nc6cc(C(=O)Nc7cc(C(=O)NCCCN(C)C)n(C)c7)n(C)c6)n(C)c5)c4)cn3C)cn2C)cn1C,> 100 µM,> 100 µM,–
COc1ccc(C2SC(C)C(=O)N2c2nc(-c3nc(-c4ccc(Cl)cc4)cs3)cs2)cc1 (configuration not stated),> 200 µM,> 100 µM,–
C=Cc1cc[n+](Cc2ccc(C[n+]3ccc(C=C)cc3)cc2)cc1,> 166 µM,85.1 µM,–
S=C(N/N=C/c1ccccn1)Nc1ccc(Cl)cc1,> 2 µM,0.0891 µM,–
N#Cc1cc2ccccc2n(Cc2ccccc2)c1=O,> 200 µM,> 200 µM,–
O=C(ON=c1c2ccccc2ccc2ccccc12)c1cc([N+](=O)[O-])cc([N+](=O)[O-])c1,> 200 µM,20.4 µM,–
CSc1nc(NC(=O)O)c(N(C(C)=O)C(=O)O)c(=O)n1C,> 794 µM,> 794 µM,–
CSC(=N/N=C(\C)c1ccc(S(=O)(=O)N(C)c2ccccc2)cc1)SC,> 200 µM,14.8 µM,–
C=CCCCC1CCCNC1=S (configuration not stated),> 275 µM,> 275 µM,–
O=c1[nH][nH]c2c1SCc1ccccc1-2,> 955 µM,468 µM,–
Cc1ccc(-n2cc(-c3ccc(Cl)cc3)c3c(N/N=C4\SCC(=O)N4C)ncnc32)cc1,> 200 µM,8.32 µM,–
NC(=S)N/N=C/C(O[C@@H](/C=N/NC(N)=S)CO)n1cnc2c(N)ncnc21 (some centres not stated),> 437 µM,89.1 µM,–
CC(OC1CC(=O)CC2C(=O)C=CC(=O)C12)c1ccccc1 (configuration not stated),> 603 µM,3.31 µM,–
COc1cc(C2c3cc4c(cc3CCN2C(=O)c2ccccc2)OCO4)cc(OC)c1OC (configuration not stated),> 200 µM,13.5 µM,–
CN(C)c1ccc(C=C2C(=O)OC(C)(C)OC2=O)cc1Br,> 28.2 µM,> 28.2 µM,–
COc1ccc(N=C(Nc2ccc(OC)cc2)C(=Nc2ccc(OC)cc2)Nc2ccc(OC)cc2)cc1,> 200 µM,28.2 µM,–
COc1c2occc2c(CN)c2ccc(=O)oc12,> 316 µM,42.7 µM,–
COC(=O)c1c(C)oc2ccc(OC(C)=O)cc12,–,–,inactive
C=C(CC1CCCS(=O)(=O)C1)S(=O)(=O)c1ccc(C)cc1 (configuration not stated),> 200 µM,> 200 µM,–
C=CCC(C(=O)OC)C1(C(=O)OC)c2[nH]c3ccccc3c2CCN1Cc1ccccc1 (configuration not stated),> 39.8 µM,> 39.8 µM,–
CN(C)CCn1cnc2ncccc2c1=O,–,–,inactive
C=C(CCC(Cl)C(COC)OC(CCC)OCC)[Si](C)(C)C (configuration not stated),> 38.9 µM,> 38.9 µM,–
CSCCC(NC(=O)C(CC(C)C)NC(=O)CNC(=O)OC(C)(C)C)C(=O)N(C)C (stereo not drawn) (Boc-Gly-Leu-Met-NMe2; configuration not given here),> 200 µM,> 200 µM,–
C=C(C)[C@@]1(O)CCC[C@H]1NC(=O)OC(C)(C)C,> 200 µM,> 200 µM,–
C(CCCCc1nnc(N2CCOCC2)o1)CCCc1nnc(N2CCOCC2)o1,> 200 µM,107 µM,–
Cn1c(COc2ccc(/C=N\NC(=O)c3ccc(C(=O)N/N=C/c4ccc(OCc5c[n+]6ccccc6n5C)cc4)cc3)cc2)c[n+]2ccccc12,4.57 µM,9.55 µM,–
COc1ccc(-c2c(C3=NCCN3)nnn2-c2ccccc2)cc1,> 295 µM,> 295 µM,–

SMILES,EC50,IC50,outcome
CC(c1ccccc1)N1CC(C)(c2ccccc2)N(O)C(c2ccccc2)C1C (configuration not stated),> 18.6 µM,> 18.6 µM,–
Cc1ccc(S(=O)(=O)N2CCN3CCN(CCN(C)CCN4CCN(CC4)CCN(S(=O)(=O)c4ccc(C)cc4)CCN(S(=O)(=O)c4ccc(C)cc4)CCN(S(=O)(=O)c4ccc(C)cc4)CCN(S(=O)(=O)c4ccc(C)cc4)CCN4CCN(CCN(C)CCN5CCN(CC5)CCN(S(=O)(=O)c5ccc(C)cc5)CCN(S(=O)(=O)c5ccc(C)cc5)CCN(S(=O)(=O)c5ccc(C)cc5)CC2)CC4)CC3)cc1,> 5.01 µM,0.724 µM,–
CCc1nnc2sc(=S)[nH]n12,–,–,inactive
C=COCCCOc1ccccc1,> 200 µM,> 200 µM,–
COc1ccc(-c2cc(=O)c3c(O)c(O)c(OC)cc3o2)cc1O,> 550 µM,240 µM,–
C#CC1(O)CCC2C3CCc4cc(Oc5nc(F)nc(-c6c7cc8ccccc8cc7c(SCC)n6CCC)n5)ccc4C3CCC21C (configuration not stated),–,–,inactive
O=C(O)c1cc2ccc(Cl)cc2c(O)c1C1=CCCCC1,> 166 µM,33.9 µM,–
CCCCNC(=S)Nc1nc(C(=O)NNC(=S)NC2CCCCC2)cs1,> 200 µM,170 µM,–
CCCCCC=C(c1cc(Cl)c(OC)c(-c2nc(C)no2)c1)c1cc(Cl)c(OC)c(-c2nc(C)no2)c1,> 200 µM,10.2 µM,–
O=C(NC1C=Nc2ccccc2NC1=O)c1ccccc1Cl (configuration not stated),> 115 µM,97.7 µM,–
C1=C[C@]2(CCC13OCCO3)COc1ccccc12,> 200 µM,18.6 µM,–
CCOC(=O)NC(Nc1ccc(C)cc1)(C(F)(F)F)C(F)(F)F,> 200 µM,> 200 µM,–
CSc1nc(C(N)=O)c(N)c(=O)[nH]1,> 468 µM,126 µM,–
O=C1CCCCC(=O)OC2(CCCCC2=O)CC1 (configuration not stated),> 200 µM,> 200 µM,–
CN(C)CC/C(=N\Nc1ccc(Cl)cc1)c1ccccc1,–,–,inactive
CCN(CC)CCCNc1ccc([N+](=O)[O-])c2nc3ccc(OC)cc3c(N)c12,> 200 µM,0.776 µM,–
Cc1ccc(C(=O)/C=C/c2ccccc2)s1,> 200 µM,10.7 µM,–
O=C(COc1ccc(OCC(=O)N2C(=O)CC(=O)N(c3ccccc3)C2=S)cc1)N1C(=O)CC(=O)N(c2ccccc2)C1=S,> 141 µM,75.9 µM,–
COc1ccc2c3c(coc13)C(CCC(=O)O)CC2 (configuration not stated),–,–,inactive
O=C1/C(=C/c2cccc3ccccc23)Cc2ccccc21,> 200 µM,97.7 µM,–
Nc1c(Br)cc2c(c1Br)Cc1cc(Br)ccc1-2,> 200 µM,> 200 µM,–
CN(C)c1ccc(/C=C/C(=O)c2ccc(O)cc2)cc1,> 200 µM,3.31 µM,–
CC(C)=CCC[C@]1(C)C=Cc2c(O)c3c(c(CC=C(C)C)c2O1)O[C@]12C(=C[C@@H]4CC1C(C)(C)O[C@@]2(C/C=C(/C)C(=O)O)C4=O)C3=O,> 0.2 µM,0.0631 µM,–
CCCc1cc(=O)oc2c3c(c4c(c12)OC(C)(C)[C@H](OC(=O)c1ccc(Br)cc1)[C@@H]4OC(=O)c1ccc(Br)cc1)O[C@@H](C)[C@H](C)[C@@H]3OC(=O)c1ccc(Br)cc1,> 200 µM,> 200 µM,–
COC(=O)CN1CCN(c2cccc3c2CCCC3)CC1,> 200 µM,64.6 µM,–
C#CCN(Cc1ccc2nc(-c3ccccc3)c(N)nc2c1)c1cc(OC)c(OC)c(OC)c1,> 21.9 µM,> 21.9 µM,–
